Reference: US20240252693A1, “FOLATE RECEPTOR-TARGETED RADIOTHERAPEUTIC AGENTS AND THEIR USE” (Novartis AG, priority 2021, published 2024)

Columns and labels:
[1] = target: T1, folate receptors on FR-positive KB cells (Homo sapiens, UniProt P15328); experiment: Binding affinity assay: direct binding of 177Lu-labelled compounds to FR-positive KB cells; conditions: 177Lu-labelled compound, 1 h 37 °C
T1 construct: endogenous in cells; host or cells: KB cells
Procedure: FR-positive KB cells and FR-negative A549 cells were seeded in 24-well Falcon plates and allowed to form adherent monolayers (>90% confluent) overnight in FFRPMI/HIFCS. Spent incubation medium was replaced with FFRPMI supplemented with 10% HIFCS containing increasing concentrations (0.78 to 100 nmol/L) of [^177Lu]-Compound 34, [^177Lu]-Compound 37, or [^177Lu]-(non-targeted control) in the absence and presence of 10 μM FA. Cells were incubated for 1 h at 37° C. and then rinsed three times with 0.5 mL PBS. Five hundred microliters of 1% NaOH in PBS were added to each well; after 5 min, cell lysates were collected, transferred to individual tubes, and then counted for radioactivity on a gamma counter. Counts per minute (CPM) values were measured in all samples and plotted against concentration of [^177Lu]-Compound 34, [1^77Lu]-Compound 37, or [^177Lu]-(non-targeted control) using GraphPad Prism 8 program. Dissociation constants (Kd) was calculated using a GraphPad's nonlinear regression one site binding method.

[2] = Stability of [177Lu]-Compound 34 solution, radiochemical purity by radio-HPLC; format: physicochemical
Procedure: Preparation of [^177Lu]-Compound 34: Compound 34 solution (250 μL, 2 mM) was added to a vial. Gentisic acid/acetate buffer pH 5.5 (800 μL) and ^177LuCl3 solution (170 μL, 184 mCi) were added to the vial. The vial was placed in a shielded heating block and heated at 95° C. for 15 min. After cooling to room temperature, 7 mL of DTPA/sodium ascorbate solution pH 7.4 was added to the labeling mixture. The final solution contains 184 mCi of ^177Lu, 0.6 mg of Compound 34, 8 mg of gentisic acid, 1.5 mg of DTPA, 350 mg of sodium ascorbate.
[^177Lu]-Compound 34 solution was stored at room temperature and in a refrigerator. The radiochemical purities were monitored using radio-HPLC. [^177Lu]-Compound 34 was stable up to 6 days.

MDA-MB-231 tumors = experiment: In vivo anti-tumor activity in mice bearing MDA-MB-231 tumors; conditions: 300 nmol/3.7 GBq/kg, female nu nu mice, n=5
Procedure: (§1) Four- to eight-week-old female nu nu mice or NSG mice (Harlan Sprague-Dawley, Inc.) were maintained on a standard 12-h light-dark cycle and fed ad libitum with folate deficient purified rodent diet (TestDiet #AIN-93G). FR-positive (human breast adenocarcinoma) or IGROV (human ovarian adenocarcinoma) or KB (human cervical adenocarcinoma) tumor cells were inoculated subcutaneously at the right flank of each mouse. Mice were dosed with [^177Lu]-Compound 34, [^177Lu]-Compound 37, or [^225Ac]-Compound 5 through the lateral tail vein under sterile conditions in a volume of 100 μL/10 g of phosphate-buffered saline (PBS). Growth of each s.c. tumor was followed by measuring the tumor two times per week. Tumors were measured in two perpendicular directions using Vernier calipers, and their volumes were calculated as 0.5×L×W^2, where L=measurement of longest axis in mm and W=measurement of axis perpendicular to L in mm. A stable disease (SD) was defined as volume reduction of <50% and increase of <50% in two weeks. A partial response (PR) was defined as volume regression >50% but with measurable tumor (>2 mm^3) remaining at all times. Complete response (CR) was defined as a disappearance of measurable tumor mass (<2 mm^3) at some point within the study. Cures were defined as CRs without tumor regrowth within the study time frame. As a general measure of gross toxicity, changes in body weights were determined on the same schedule as tumor volume measurements.

[3] = Body weight as measure of gross toxicity in the MDA-MB-231 anti-tumor study; format: in vivo; conditions: 300 nmol/3.7 GBq/kg, female nu nu mice bearing MDA-MB-231 tumors
Source text: as §1, with “Mice were dosed with [^177Lu]-Compound 34, [^177Lu]-Compound 37, or [^225Ac]-Compound 5 through the lateral tail vein under sterile conditions in a volume of 100 μL/10 g of phosphate-buffered saline (PBS).” left out

T1 sequence (P15328 25-234): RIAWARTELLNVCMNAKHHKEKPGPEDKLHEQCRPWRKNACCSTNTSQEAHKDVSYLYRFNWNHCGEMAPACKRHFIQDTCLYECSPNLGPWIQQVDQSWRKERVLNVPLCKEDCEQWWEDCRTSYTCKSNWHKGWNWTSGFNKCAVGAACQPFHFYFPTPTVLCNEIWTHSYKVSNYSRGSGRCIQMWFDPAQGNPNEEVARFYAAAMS

Row | SMILES | Kd [1] [nM] | Radiochemical purity (%) ([2]; 0° C., 3 days) | Radiochemical purity (%) ([2]; 0° C., 6 days) | Radiochemical purity (%) ([2]; 0° C., initial) | Radiochemical purity (%) ([2]; Room temperature (24° C.), 3 days) | Radiochemical purity (%) ([2]; Room temperature (24° C.), 6 days) | Radiochemical purity (%) ([2]; Room temperature (24° C.), initial) | time over which the solution was stable ([2]; stored at room temperature and in a refrigerator, radio-HPLC) | partial responses (PRs) (MDA-MB-231 tumors) | average weight of mice (tolerability) [3] | complete response (CR) (MDA-MB-231 tumors)
1 | Nc1nc2ncc(CNc3ccc(C(=O)N[C@@H](CCCCNC(=O)C[C@H](NC(=O)[C@H](Cc4ccc5ccccc5c4)NC(=O)CNC(=O)CN4CCN(CC(=O)O)CCN(CC(=O)O)CCN(CC(=O)O)CC4)C(=O)O)C(=O)O)cc3)nc2c(=O)[nH]1 [[^177Lu]-Compound 34, metal not drawn] | 7.21 | 97.19 | 96.58 | 97.14 | 96.77 | 95.89 | 97.14 | up to 6 days | five | did not lose any significant weight | 
2 | Nc1nc2ncc(CNc3ccc(C(=O)N[C@@H](CCCCNC(=O)COc4ccc(C[C@H](NC(=O)CNC(=O)CN5CCN(CC(=O)O)CCN(CC(=O)O)CCN(CC(=O)O)CC5)C(=O)O)cc4)C(=O)O)cc3)nc2c(=O)[nH]1 [[^177Lu]-Compound 37, metal not drawn] | 8.99 |  |  |  |  |  |  |  | four | did not lose any significant weight | one
